Values of other authors, collected in patent US11059901B2, “Compositions and methods related to xCT antibodies” (AGIL VAX, INC., priority 2017, dated 2021).

Assays:
xCT = molecular target: T1, xCT (Homo sapiens, UniProt Q9UPY5)
T1 sequence (Q9UPY5 1-501): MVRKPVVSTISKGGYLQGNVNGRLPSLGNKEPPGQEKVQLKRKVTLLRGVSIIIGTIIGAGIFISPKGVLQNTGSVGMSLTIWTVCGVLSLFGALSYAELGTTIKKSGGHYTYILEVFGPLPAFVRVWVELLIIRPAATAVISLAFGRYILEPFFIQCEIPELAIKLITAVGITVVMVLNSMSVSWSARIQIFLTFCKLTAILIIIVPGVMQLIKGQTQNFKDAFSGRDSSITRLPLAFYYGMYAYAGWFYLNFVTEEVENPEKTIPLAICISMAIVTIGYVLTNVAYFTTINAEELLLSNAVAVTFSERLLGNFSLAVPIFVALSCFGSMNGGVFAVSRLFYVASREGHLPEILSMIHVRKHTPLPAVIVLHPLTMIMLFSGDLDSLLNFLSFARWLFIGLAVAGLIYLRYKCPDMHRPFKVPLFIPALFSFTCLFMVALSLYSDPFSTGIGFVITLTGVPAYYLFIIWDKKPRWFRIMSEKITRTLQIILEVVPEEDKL
T1 sequence (P08195 1-529 partner): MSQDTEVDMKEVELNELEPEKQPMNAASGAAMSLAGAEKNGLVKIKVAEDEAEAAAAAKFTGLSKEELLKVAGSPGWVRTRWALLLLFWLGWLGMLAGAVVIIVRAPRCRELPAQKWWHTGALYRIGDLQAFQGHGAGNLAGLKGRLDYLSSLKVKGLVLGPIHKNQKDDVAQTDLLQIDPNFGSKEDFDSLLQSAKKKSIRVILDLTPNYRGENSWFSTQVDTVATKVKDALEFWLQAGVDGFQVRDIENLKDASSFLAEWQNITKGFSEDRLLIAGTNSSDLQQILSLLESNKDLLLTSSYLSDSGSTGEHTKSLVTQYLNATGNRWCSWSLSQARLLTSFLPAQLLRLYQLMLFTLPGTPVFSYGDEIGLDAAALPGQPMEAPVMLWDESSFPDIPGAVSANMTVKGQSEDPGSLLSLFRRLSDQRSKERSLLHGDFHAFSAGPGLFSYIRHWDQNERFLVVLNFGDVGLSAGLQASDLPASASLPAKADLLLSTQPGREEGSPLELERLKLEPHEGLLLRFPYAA

[1] = under physiological conditions

O=C(O)c1cc(/N=N/c2ccc(S(=O)(=O)Nc3ccccn3)cc2)ccc1O [SASP, sulfasalazine]
metastatic foci (xCT; animal models of breast cancer metastasis): significant decreases | frequency of CSC (xCT; in vivo): reductions | solubility [1]: insoluble | stability [1]: labile
